Measured values as given in patent publication US20240050428A1 (Cullgen (Shanghai), Inc., priority 2020, published 2024).
Where two headings read alike, the source gives them in different places.

Assays:
MV4;11 cells = assay: Cell viability assay (CellTiter-Glo) in MV4;11 cells, alone or with gilteritinib; format: cell-based; conditions: Homo sapiens, MV4;11 cells, CellTiter-Glo, read-out: MV4
MOLM-13 cells = assay: Cell viability assay (CellTiter-Glo) in MOLM-13 cells, alone or with gilteritinib; format: cell-based; conditions: Homo sapiens, MOLM-13 cells, CellTiter-Glo
[1] = MV4-11, 72 h, compound alone (without gilteritinib), three days, 11 IC50
[2] = MV4-11, 72 h, compound with gilteritinib 10 nM, three days, 11 IC50 gilteritinib
[3] = MOLM-13, 72 h, compound alone (without gilteritinib), three days, read-out: MOLM-13 IC50
[4] = MOLM-13, 72 h, compound with gilteritinib 20 nM, three days, read-out: MOLM-13 IC50 gilteritinib
[5] = MV4-11, 72 h, with gilteritinib 10 nM, three days, 11 IC50 gilteritinib
[6] = MOLM-13, 72 h, with gilteritinib 20 nM, three days, read-out: MOLM-13 IC50 gilteritinib
[7] = 72 h, compound alone (without gilteritinib), three days, 11 IC50
[8] = 72 h, with gilteritinib 10 nM, three days, 11 IC50 gilteritinib
[9] = 72 h, compound alone (without gilteritinib), three days, read-out: MOLM-13 IC50
[10] = 72 h, with gilteritinib 20 nM, three days, read-out: MOLM-13 IC50 gilteritinib

| IC50 (MV4;11 cells; [1]) [nM] | IC50 (MV4;11 cells; [2]) [nM] | IC50 (MOLM-13 cells; [3]) [nM] | IC50 (MOLM-13 cells; [4]) [nM] | IC50 (MV4;11 cells; [5]) [nM] | IC50 (MOLM-13 cells; [6]) [nM] | Structure (SMILES) | further results |
| --- | --- | --- | --- | --- | --- | --- | --- |
| 10 to 100 | < 10 | 10 to 100 | < 10 | – | – | Cc1nn([C@H]2C[C@@H](CCCNc3ccc4c(c3)C(=O)N(C3CCC(=O)NC3=O)C4=O)C2)cc1-c1cnc2cc(N3CCOCC3)ccc2n1 (stereo partly drawn) [GS-422, 2-(2,6-dioxopiperidin-3-yl)-5-((3-(cis-3-(3-methyl-4-(6-morpholinoquinoxalin-2-yl)-1H-pyrazol-1-yl)cyclobutyl)propyl)amino)isoindoline-1,3-dione] | – |
| > 1000 | – | > 1000 | – | 10 to 100 | 100 to 1000 | O=C1CCC(N2Cc3c(NC4CCCC(Nc5ccnc(N6CCC(n7cc(-c8cnc9ccccc9n8)cn7)CC6)n5)C4)cccc3C2=O)C(=O)N1 (stereo not shown) [GS-119, 3-(1-Oxo-4-((3-((2-(4-(4-(quinoxalin-2-yl)-1H-pyrazol-1-yl)piperidin-1-yl)pyrimidin-4-yl)amino)cyclohexyl)amino)isoindolin-2-yl)piperidine-2,6-dione] | – |
| 100 to 1000 | – | > 1000 | – | 10 to 100 | 10 to 100 | O=C1CCC(N2C(=O)c3ccc(NCCC[C@H]4C[C@@H](n5cc(-c6cnc7cc(N8CCOCC8)ccc7n6)cn5)C4)cc3C2=O)C(=O)N1 (stereo partly drawn) [GS-402, 2-(2,6-Dioxopiperidin-3-yl)-5-((3-(cis-3-(4-(6-morpholinoquinoxalin-2-yl)-1H-pyrazol-1-yl)cyclobutyl)propyl)amino)isoindoline-1,3-dione] | – |
| 100 to 1000 | – | 100 to 1000 | – | 10 to 100 | < 10 | O=C1CCC(N2C(=O)c3ccc(NCCC[C@H]4C[C@@H](n5cc(-c6cnc7ccc(C8CCOCC8)cc7n6)cn5)C4)cc3C2=O)C(=O)N1 (stereo partly drawn) [GS-182, 2-(2,6-Dioxopiperidin-3-yl)-5-((3-(cis-3-(4-(7-(tetrahydro-2H-pyran-4-yl)quinoxalin-2-yl)-1H-pyrazol-1-yl)cyclobutyl)propyl)amino)isoindoline-1,3-dione] | – |
| > 1000 | 100 to 1000 | > 1000 | 100 to 1000 | – | – | O=C1CCC(N2C(=O)c3ccc(NCC4CC5(C4)CC(n4cc(-c6cnc7ccccc7n6)cn4)C5)cc3C2=O)C(=O)N1 (stereo not shown) [GS-539, 2-(2,6-Dioxopiperidin-3-yl)-5-(((6-(4-(quinoxalin-2-yl)-1H-pyrazol-1-yl)spiro[3.3]heptan-2-yl)methyl)amino)isoindoline-1,3-dione] | – |
| > 1000 | – | > 1000 | – | 100 to 1000 | 10 to 100 | O=C1CCC(N2C(=O)c3ccc(NCCCCCCn4cc(-c5cnc6cccc(N7CCOCC7)c6n5)cn4)cc3C2=O)C(=O)N1 (stereo not shown) [GS-381, 2-(2,6-Dioxopiperidin-3-yl)-5-((6-(4-(8-morpholinoquinoxalin-2-yl)-1H-pyrazol-1-yl)hexyl)amino)isoindoline-1,3-dione] | – |
| > 1000 | 10 to 100 | > 1000 | 100 to 1000 | – | – | O=C1CCC(N2Cc3cc(NCCCCC(=O)N4CCC(n5cc(-c6cnc7ccccc7n6)cn5)CC4)ccc3C2=O)C(=O)N1 (stereo not shown) [GS-515, 3-(1-Oxo-5-((5-oxo-5-(4-(4-(quinoxalin-2-yl)-1H-pyrazol-1-yl)piperidin-1-yl)pentyl)amino)isoindolin-2-yl)piperidine-2,6-dione] | – |
| – | – | – | – | – | – | O=C1CCC(N2C(=O)c3ccc(NCCCCCC(=O)N4CCC(n5cc(C6CNc7ccccc7N6)cn5)CC4)cc3C2=O)C(=O)N1 (stereo not shown) [GS-008, 2-(2,6-Dioxopiperidin-3-yl)-5-((6-oxo-6-(4-(4-(1,2,3,4-tetrahydroquinoxalin-2-yl)-1H-pyrazol-1-yl)piperidin-1-yl)hexyl)amino)isoindoline-1,3-dione] | IC50 (MV4;11 cells; MV4-11, 72 h, with 10 nM gilteritinib, 3 days, 11 IC50 gilteritinib): 27 nM; IC50 (MV4;11 cells; MV4-11, 72 h, without gilteritinib, 3 days, 11 IC50): 449 nM; IC50 (MOLM-13 cells; MOLM-13, 72 h, with 20 nM gilteritinib, 3 days, read-out: MOLM-13 IC50 gilteritinib): 14 nM; IC50 (MOLM-13 cells; MOLM-13, 72 h, without gilteritinib, 3 days, read-out: MOLM-13 IC50): 78 nM |
| < 10 | < 10 | 10 to 100 | < 10 | – | – | CC(C)n1ncc2cnc(-c3cn([C@H]4C[C@H](CNc5ccc6c(c5)C(=O)N(C5CCC(=O)NC5=O)C6=O)C4)nc3C3CC3)cc21 (stereo partly drawn) [GS-614, 5-(((trans-3-(3-Cyclopropyl-4-(1-isopropyl-1H-pyrazolo[4,3-c]pyridin-6-yl)-1H-pyrazol-1-yl)cyclobutyl)methyl)amino)-2-(2,6-dioxopiperidin-3-yl)isoindoline-1,3-dione] | – |
| > 1000 | 100 to 1000 | > 1000 | 100 to 1000 | – | – | Cc1cccc(-c2cnn([C@H]3C[C@H](CNc4ccc5c(c4)C(=O)N(C4CCC(=O)NC4=O)C5=O)C3)c2)n1 (stereo partly drawn) [GS-578, 2-(2,6-Dioxopiperidin-3-yl)-5-(((trans-3-(4-(6-methylpyridin-2-yl)-1H-pyrazol-1-yl)cyclobutyl)methyl)amino)isoindoline-1,3-dione] | – |
| 100 to 1000 | – | > 1000 | – | 100 to 1000 | 100 to 1000 | O=C(CC1CC1n1cc(-c2cnc3ccccc3n2)cn1)NCc1ccc2c(c1)CN(C1CCC(=O)NC1=O)C2=O (stereo not shown) [GS-109, N-((2-(2,6-Dioxopiperidin-3-yl)-1-oxoisoindolin-5-yl)methyl)-2-(2-(4-(quinoxalin-2-yl)-1H-pyrazol-1-yl)cyclopropyl)acetamide] | – |
| 10 to 100 | 10 to 100 | 100 to 1000 | 10 to 100 | – | – | O=C1CCC(N2C(=O)c3ccc(NCCCCn4cc(-c5cnc6ccccc6n5)c(C5CC5)n4)cc3C2=O)C(=O)N1 (stereo not shown) [GS-450, 5-((4-(3-cyclopropyl-4-(quinoxalin-2-yl)-1H-pyrazol-1-yl)butyl)amino)-2-(2,6-dioxopiperidin-3-yl)isoindoline-1,3-dione] | – |
| – | – | – | – | – | – | O=C1CCC(N2C(=O)c3ccc(NCCCC(=O)N4CCC(c5ccccc5)CC4)cc3C2=O)C(=O)N1 (stereo not shown) [GS-148, 2-(2,6-Dioxopiperidin-3-yl)-5-((4-oxo-4-(4-phenylpiperidin-1-yl)butyl)amino)isoindoline-1,3-dione] | IC50 (MV4;11 cells; [7]): > 1000 nM; IC50 (MV4;11 cells; [8]): 100 to 1000 nM; IC50 (MOLM-13 cells; [9]): 100 to 1000 nM; IC50 (MOLM-13 cells; [10]): 10 to 100 nM |
| – | – | – | – | – | – | O=C1CCC(N2C(=O)c3ccc(NCCNc4cccc(-n5cc(-c6cnc7ccccc7n6)cn5)c4)cc3C2=O)C(=O)N1 (stereo not shown) [GS-353, 2-(2,6-Dioxopiperidin-3-yl)-5-((2-((3-(4-(quinoxalin-2-yl)-1H-pyrazol-1-yl)phenyl)amino)ethyl)amino)isoindoline-1,3-dione] | IC50 (MV4;11 cells; [7]): 100 to 1000 nM; IC50 (MV4;11 cells; [8]): 10 to 100 nM; IC50 (MOLM-13 cells; [9]): > 1000 nM; IC50 (MOLM-13 cells; [10]): 10 to 100 nM |
| > 1000 | > 1000 | > 1000 | > 1000 | – | – | Cc1cccc(-c2cn([C@H]3C[C@H](CNc4ccc5c(c4)C(=O)N(C4CCC(=O)NC4=O)C5=O)C3)nc2C(=O)N(C)C)n1 (stereo partly drawn) [GS-636, 1-(trans-3-(((2-(2,6-dioxopiperidin-3-yl)-1,3-dioxoisoindolin-5-yl)amino)methyl)cyclobutyl)-N,N-dimethyl-4-(6-methylpyridin-2-yl)-1H-pyrazole-3-carboxamide] | – |
| 10 to 100 | – | 100 to 1000 | – | 10 to 100 | 10 to 100 | O=C(CC1CC1N1CCC(n2cc(-c3cnc4ccccc4n3)cn2)CC1)NCc1ccc2c(c1)CN(C1CCC(=O)NC1=O)C2=O (stereo not shown) [GS-083, N-((2-(2,6-Dioxopiperidin-3-yl)-1-oxoisoindolin-5-yl)methyl)-2-(2-(4-(4-(quinoxalin-2-yl)-1H-pyrazol-1-yl)piperidin-1-yl)cyclopropyl)acetamide] | – |
